# Data from patent US20230399312A1, “SUBSTITUTED PYRIMIDINES AND METHODS OF USE” (THERAVANCE BIOPHARMA R&D IP, LLC, priority 2020, published 2023).
# How the values were obtained:
# [1] = system: TGF-β-stimulated SMAD3 phosphorylation in BEAS-2B cells; assay: Cellular ALK5 potency assay, inhibition of TGF-β stimulated pSMAD3 formation in BEAS-2B cells; assay type: cell-based; conditions: Homo sapiens, pSMAD3, TGF-β 10 ng/mL, read-out: BEAS2B pIC50 (converted)
# Summary of the method: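 Reported as pIC50, potency reflects dose-dependent loss of AlphaLISA pSMAD3 signal versus TGF-β-stimulated, compound-free BEAS-2B cells. Compound was applied for 1 h in BSA-containing HBSS buffer before a 30-min challenge with TGF-β at 10 ng/mL final.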
# [2] = molecular target: T1, recombinant human ALK5 (TGF-βR1) protein (Homo sapiens, UniProt P36897); assay: Biochemical ALK5 (TGF-βR1) assay to measure pKi (LANCE Ultra ULight kinase assay); conditions: apparent pKi, converted from pIC50 by Cheng-Prusoff
# T1 construct: purchased Life Technologies PR9075A
# T1 sequence (P36897 34-503): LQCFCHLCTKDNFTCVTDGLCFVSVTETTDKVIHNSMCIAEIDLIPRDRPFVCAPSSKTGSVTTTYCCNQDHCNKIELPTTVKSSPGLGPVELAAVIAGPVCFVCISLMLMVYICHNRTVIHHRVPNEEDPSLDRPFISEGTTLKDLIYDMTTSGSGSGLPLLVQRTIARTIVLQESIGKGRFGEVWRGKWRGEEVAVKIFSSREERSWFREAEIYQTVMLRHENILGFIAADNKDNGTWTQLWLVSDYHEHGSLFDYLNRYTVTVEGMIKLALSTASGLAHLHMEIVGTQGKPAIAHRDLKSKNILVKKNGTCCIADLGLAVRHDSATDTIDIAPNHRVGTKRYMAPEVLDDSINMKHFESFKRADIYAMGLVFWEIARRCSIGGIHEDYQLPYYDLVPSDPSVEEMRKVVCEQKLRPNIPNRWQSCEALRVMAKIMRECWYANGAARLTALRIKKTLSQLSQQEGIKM
# Summary of the method: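 Enzyme preincubated with compound for 60 min at room temperature, then reacted with ATP (125 μM as 5× stock) for 60 min at 37 °C. Stopped with EDTA plus Eu-anti-phospho-Topoisomerase 2-alpha (Thr1342) antibody and read by TR-FRET at 665 nm. pIC50 from a 4-parameter fit, converted to pKi by Cheng-Prusoff.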
Compound,Ki [2] [nM],IC50 [1] [nM]
"CCC(C)OC(=O)C1CNCCN1c1ccc(Nc2nccc(Nc3ccnc(-c4cccc(C)n4)n3)n2)cc1 (racemic) [Compound 230, [rac-(1R)-1-methylpropyl] 1-[4-[[4-[[2-(6-methyl-2-pyridyl)pyrimidin-4-yl]amino]pyrimidin-2-yl]amino]phenyl]piperazine-2-carboxylate]",0.398 to 3.16,25.1 to 158
"Cc1cccc(-c2nccc(Nc3ccnc(Nc4nc(C(=O)O[C@@H]5CCN(C)C5)cs4)n3)n2)n1 [Compound 291, [(3R)-1-methylpyrrolidin-3-yl] 2-[[4-[[2-(6-methyl-2-pyridyl)pyrimidin-4-yl]amino]pyrimidin-2-yl]amino]thiazole-4-carboxylate]",0.398 to 3.16,25.1 to 158
"Cc1cccc(-c2nccc(Nc3ccnc(Nc4csc(C(=O)OCC5CNC5)c4)n3)n2)n1 [Compound 96, azetidin-3-ylmethyl 4-((4-((2-(6-methylpyridin-2-yl)pyrimidin-4-yl)amino)pyrimidin-2-yl)amino)thiophene-2-carboxylate]",0.0398 to 0.316,25.1 to 158
"Cc1cccc(-c2nccc(Nc3ccnc(Nc4cccc(NC(=O)N5CCNCC5)c4)n3)n2)n1 [Compound 298, N-[3-[[4-[[2-(6-methyl-2-pyridyl)pyrimidin-4-yl]amino]pyrimidin-2-yl]amino]phenyl]piperazine-1-carboxamide]",0.0398 to 0.316,25.1 to 158
"Cc1cccc(-c2nccc(Nc3ccnc(Nc4ncc(C(=O)N5CCNCC5)s4)n3)n2)n1 [Compound 30, [2-[[4-[[2-(6-methyl-2-pyridyl)pyrimidin-4-yl]amino]pyrimidin-2-yl]amino]thiazol-5-yl]-piperazin-1-yl-methanone]",3.98 to 31.6,200 to 1260
"Cc1cccc(-c2nccc(Nc3ccnc(Nc4ccc(NC(=O)C5CCN(C)CC5)cc4)n3)n2)n1 [Compound 150, 1-methyl-N-[4-[[4-[[2-(6-methyl-2-pyridyl)pyrimidin-4-yl]amino]pyrimidin-2-yl]amino]phenyl]piperidine-4-carboxamide]",0.0398 to 0.316,25.1 to 158
"CNC(=O)[C@@H]1CN(Cc2ccc(Nc3nccc(Nc4ccnc(-c5cccc(C)n5)n4)n3)cc2)CCN1 [Compound 271, (2S)-N-methyl-4-[[4-[[4-[[2-(6-methyl-2-pyridyl)pyrimidin-4-yl]amino]pyrimidin-2-yl]amino]phenyl]methyl] piperazine-2-carboxamide]",0.0398 to 0.316,25.1 to 158
"Cc1cccc(-c2nccc(Nc3ccnc(Nc4ccc(N5CCNCC5CC(=O)OC5CNC5)cc4)n3)n2)n1 (centres unmarked) [Compound 159, azetidin-3-yl 2-[1-[4-[[4-[[2-(6-methyl-2-pyridyl)pyrimidin-4-yl]amino]pyrimidin-2-yl]amino]phenyl]piperazin-2-yl]acetate]",0.0398 to 0.316,200 to 1260
"Cc1cccc(-c2nccc(Nc3ccnc(Nc4ccc(-c5cn(C)nn5)cc4)n3)n2)n1 [Compound 328, N4-[2-(6-methyl-2-pyridyl)pyrimidin-4-yl]-N2-[4-(1-methyltriazol-4-yl)phenyl]pyrimidine-2,4-diamine]",0.0398 to 0.316,≤ 20
"Cc1cccc(-c2nccc(Nc3ccnc(Nc4ccc(N(C)C5CCNC5)cc4)n3)n2)n1 (racemic) [Compound 274, N4-[2-(6-methyl-2-pyridyl)pyrimidin-4-yl]-N2-[4-[methyl-[rac-(3R)-pyrrolidin-3-yl]amino]phenyl]pyrimidine-2,4-diamine]",0.0398 to 0.316,25.1 to 158

# Now from value to compound, other results behind:
Ki [2] [nM],Compound,IC50 [1] [nM]
0.0398 to 0.316,"Cc1cccc(-c2nc(Nc3ccnc(Nc4ccc(NC(=O)C5(CO)CNC5)cc4)n3)c3cccn3n2)n1 [Compound 1031, 3-(hydroxymethyl)-N-[4-[[4-[[2-(6-methyl-2-pyridyl)pyrrolo[2,1-f][1,2,4]triazin-4-yl]amino]pyrimidin-2-yl]amino]phenyl]azetidine-3-carboxamide]",25.1 to 158
3.98 to 31.6,"Cc1cccc(-c2nccc(Nc3ccnc(Nc4csc(C(=O)O)n4)n3)n2)n1 [Compound 585, 4-[[4-[[2-(6-methyl-2-pyridyl)pyrimidin-4-yl]amino]pyrimidin-2-yl]amino]thiazole-2-carboxylic acid]",200 to 1260
0.0398 to 0.316,"Cc1cccc(-c2nc(Nc3ccnc(Nc4ccc(C(=O)OCC5CNC5)cc4)n3)c3cccn3n2)n1 [Compound 1039, azetidin-3-ylmethyl 4-[[4-[[2-(6-methyl-2-pyridyl)pyrrolo[2,1-f][1,2,4]triazin-4-yl]amino]pyrimidin-2-yl]amino]benzoate]",25.1 to 158
≤ 0.0316,"Cc1cccc(-c2nccc(Nc3ccnc(Nc4ccc(CN5CCC(CO)CC5)cc4)n3)n2)n1 [Compound 474, [1-[[4-[[4-[[2-(6-methyl-2-pyridyl)pyrimidin-4-yl]amino]pyrimidin-2-yl]amino]phenyl]methyl]-4-piperidyl]methanol]",25.1 to 158
3.98 to 31.6,"Cc1cccc(-c2nccc(Nc3ccnc(Nc4ccc(C(=O)OCC5CNC5)cn4)n3)n2)n1 [Compound 564, azetidin-3-ylmethyl 6-[[4-[[2-(6-methyl-2-pyridyl)pyrimidin-4-yl]amino]pyrimidin-2-yl]amino]pyridine-3-carboxylate]",200 to 1260
0.0398 to 0.316,"Cc1cccc(-c2nc(Nc3ccnc(Nc4ccc(CC(=O)O)cc4)n3)c3cccn3n2)n1 [Compound 1018, 2-[4-[[4-[[2-(6-methyl-2-pyridyl)pyrrolo[2,1-f][1,2,4]triazin-4-yl]amino]pyrimidin-2-yl]amino]phenyl]acetic acid]",25.1 to 158
0.0398 to 0.316,"Cc1cccc(-c2nccc(Nc3ccnc(Nc4ccc(C(=O)OC[C@@H]5CCCCN5)nc4)n3)n2)n1 [Compound 597, [(2S)-2-piperidyl]methyl 5-[[4-[[2-(6-methyl-2-pyridyl)pyrimidin-4-yl]amino]pyrimidin-2-yl]amino]pyridine-2-carboxylate]",25.1 to 158
0.0398 to 0.316,"Cc1cccc(-c2nccc(Nc3ccnc(Nc4nc(C(=O)NC5(CO)CCNC5)cs4)n3)n2)n1 (centres unmarked) [Compound 520, N-[3-(hydroxymethyl)pyrrolidin-3-yl]-2-[[4-[[2-(6-methyl-2-pyridyl)pyrimidin-4-yl]amino]pyrimidin-2-yl]amino]thiazole-4-carboxamide]",25.1 to 158
0.0398 to 0.316,"Cc1cccc(-c2nc(Nc3ccnc(Nc4ccc(C(=O)NC5CCNC5)cc4)n3)c3cccn3n2)n1 (centres unmarked) [Compound 1036, 4-[[4-[[2-(6-methyl-2-pyridyl)pyrrolo[2,1-f][1,2,4]triazin-4-yl]amino]pyrimidin-2-yl]amino]-N-pyrrolidin-3-yl-benzamide]",25.1 to 158
3.98 to 31.6,"Cc1cccc(-c2nccc(Nc3ccnc(Nc4ncc(C(=O)OC[C@H]5CCCCN5)s4)n3)n2)n1 [Compound 578, [(2R)-2-piperidyl]methyl 2-[[4-[[2-(6-methyl-2-pyridyl)pyrimidin-4-yl]amino]pyrimidin-2-yl]amino]thiazole-5-carboxylate]",200 to 1260
0.398 to 3.16,"Cc1cccc(-c2nccc(Nc3ccnc(Nc4ccnc(C(=O)OCC5CNC5)c4)n3)n2)n1 [Compound 616, azetidin-3-ylmethyl 4-[[4-[[2-(6-methyl-2-pyridyl)pyrimidin-4-yl]amino]pyrimidin-2-yl]amino]pyridine-2-carboxylate]",25.1 to 158
≤ 0.0316,"Cc1cccc(-c2nccc(Nc3ccnc(Nc4csc(C(=O)N[C@@H]5CCNC5)c4)n3)n2)n1 [Compound 336, 4-[[4-[[2-(6-methyl-2-pyridyl)pyrimidin-4-yl]amino]pyrimidin-2-yl]amino]-N-[(3R)-pyrrolidin-3-yl]thiophene-2-carboxamide]",25.1 to 158
0.398 to 3.16,"Cc1cccc(-c2nccc(Nc3ccnc(Nc4nc(CN5CCC[C@@H](C(=O)O)C5)cs4)n3)n2)n1 [Compound 339, (3R)-1-[[2-[[4-[[2-(6-methyl-2-pyridyl)pyrimidin-4-yl]amino]pyrimidin-2-yl]amino]thiazol-4-yl]methyl]piperidine-3-carboxylic acid]",200 to 1260
0.0398 to 0.316,"CC[C@H](C)OC(=O)Cc1cc(Nc2nccc(Nc3ccnc(-c4cccc(C)n4)n3)n2)ccc1N1CCNCC1 [Compound 466, [(1S)-1-methylpropyl] 2-[5-[[4-[[2-(6-methyl-2-pyridyl)pyrimidin-4-yl]amino]pyrimidin-2-yl]amino]-2-piperazin-1-yl-phenyl]acetate]",25.1 to 158
0.0398 to 0.316,"Cc1cccc(-c2nccc(Nc3ccnc(Nc4ccc(CN5CCC[C@@H](C(=O)O)C5)cc4)n3)n2)n1 [Compound 428, (3R)-1-[[4-[[4-[[2-(6-methyl-2-pyridyl)pyrimidin-4-yl]amino]pyrimidin-2-yl]amino]phenyl]methyl] piperidine-3-carboxylic acid]",200 to 1260
